We go through 2 compounds from US11814390B2, “Crystalline forms of 2-[3-[4-amino-3-(2-fluoro-4-phenoxy-phenyl)-1H-pyrazolo[3,4-D]pyrimidin-1-yl]piperidine-1-carbonyl]-4-methyl-4-[4-(oxetan-3-yl)piperazin-1-yl]pent-2-enenitrile” (Principia Biopharma Inc., priority 2020, dated 2023).

Data set [1] in a line: Conversion between crystalline forms over time / relative thermodynamic stability at room temperature. The class given is physicochemical. As for the experimental part: Several crystallization experiments were conducted in as part of a polymorph study for Compound (I). The experiments comprised different crystallization techniques such as suspension equilibration experiments, precipitations, cooling crystallizations, and vapor diffusion experiments.

Data set [2] can be described thus: Water content upon storage at high relative humidity (hygroscopicity). The class given is physicochemical. The conditions noted are these: storage at 85% relative humidity (RH).

“Also recorded” adds a separate entry of the source.

Take `CC(C)(C=C(C#N)C(=O)N1CCC[C@@H](n2nc(-c3ccc(Oc4ccccc4)cc3F)c3c(N)ncnc32)C1)N1CCN(C2COC2)CC1` [Crystalline Form B, (R)-2-[3-[4-amino-3-(2-fluoro-4-phenoxy-phenyl)pyrazolo[3,4-d]pyrimidin-1-yl]piperidine-1-carbonyl]-4-methyl-4-[4-(oxetan-3-yl)piperazin-1-yl]pent-2-enenitrile]: in data set [1] (at room temperature), the “relative thermodynamic stability of crystalline form” value is reported as “may be thermodynamically more stable than crystalline Form A; also recorded: may be more thermodynamically more stable than crystalline Form C”.

As for `CC(C)(C=C(C#N)C(=O)N1CCC[C@@H](n2nc(-c3ccc(Oc4ccccc4)cc3F)c3c(N)ncnc32)C1)N1CCN(C2COC2)CC1` [crystalline Form A, (R)-2-[3-[4-amino-3-(2-fluoro-4-phenoxy-phenyl)pyrazolo[3,4-d]pyrimidin-1-yl]piperidine-1-carbonyl]-4-methyl-4-[4-(oxetan-3-yl)piperazin-1-yl]pent-2-enenitrile], the “water content upon storage” value in data set [2] is on record as “less than 1%”. For the same compound, in data set [1] (over time), the “conversion of crystalline form over time” value is reported as “may convert to crystalline Form B over time”.
